Test system: weed plants
Assay: Field trial of weed control: individual weed plants counted on test plots after herbicide treatment
Type: in vivo
Conditions: for Incidence of weeds (average count of weed plants per test plot): MustGrow SCN 24.3 kg/acre
Description: A total of 8 herbicide treatments were run in a field trial as follows:
RT540®, Bayer CropScience contains 540 g/L of glyphosate as the active ingredient. MustGrow SCN consists of pure commercially purchased thiocyanate in powder form. RT540 and MustGrow SCN were diluted with 10 parts of water and applied using a backpack sprayer to each of the test plots located in central Saskatchewan at the rate indicated in Table 2. Each treatment consisted of triplicate experimental plots (4×20 ft). Weed plant growth was monitored by counting individual weed plants present on each of the test plots over a period of 5 weeks from application.

Row | Molecule | Incidence of weeds (average count of weed plants per test plot) (week 1) | Incidence of weeds (average count of weed plants per test plot) (week 2) | Incidence of weeds (average count of weed plants per test plot) (week 3) | Incidence of weeds (average count of weed plants per test plot) (week 4) | Incidence of weeds (average count of weed plants per test plot) (week 5) | Effectiveness in limiting the incidence of weeds, in words (under the conditions of this trial, RT540 0.1-1 L/acre)
1 | thiocyanate [MustGrow SCN] | 8 | 15 | 75 | 155 | 174 | –
2 | O=C(O)CNCP(=O)(O)O [glyphosate, N-(phosphomethyl)glycine, reference compound] | – | – | – | – | – | marginally effective

From patent US12667103B2, “Methods and compositions comprising herbicidally active compounds and thiocyanate compounds for controlling weed growth” (MUSTGROW BIOLOGICS CORP., priority 2020, dated 2026)
